Experimental data taken from ChEMBL document CHEMBL1201862, “PubChem BioAssay data set” (2004).
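Growth conditions: 96-well plates. Treatment: test compound, 48 hours, 5 concentrations. Analysis: linear interpolation between bracketing concentrations; unreached endpoints set to highest concentration. GI50 is the concentration that inhibits growth by half.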 Calls of active or inactive are those of the source. Cut-off read from the data, not from the text of the source: active = GI50 up to about 1.1 µM and inactive = higher.

Key:
Assay in all cases: DTP human tumour cell line panel, 48 h
Hs-578T = system: Hs-578T
DMS-114 = system: DMS-114
HOP-18 = system: HOP-18
KM-20L2 = system: KM-20L2
LXFL 529 = system: LXFL 529
M19-MEL = system: M19-MEL
XF498 = system: XF498
SNB-78 = system: SNB-78
RXF 631 = system: RXF 631

Row | Compound | GI50 (Hs-578T) | GI50 (LXFL 529) | GI50 (M19-MEL) | further results
1 | Oc1cc(/C=C/c2ccccc2)nc2cc3c(cc12)OCO3 | 3.78 µM (inactive) |  |  | 
2 | CCNc1ccc2c(c1)C(=O)N(OS(C)(=O)=O)C2=O | > 100 µM (inactive) |  |  | 
3 | O=C(O)c1nn(-c2ccc(Cl)cc2)c2c1C(=O)c1ccccc1C2=O | > 100 µM (inactive) |  |  | 
4 | CCn1c(-c2c(Cl)cc(O)cc2Cl)cc2c(Cl)cc(O)cc21 | 5.07 µM (inactive) |  |  | 
5 | O=C(O)CSSCC(=O)O | > 100 µM (inactive) |  |  | 
6 | CCOC(=O)c1c(SCCN2CCCCC2)n(-c2ccccc2)c(=S)n(-c2ccccc2)c1=O | 26.1 µM (inactive) |  |  | 
7 | O=S(=O)(O)C(F)(F)C(F)(F)C(F)(F)C(F)(F)F |  | > 100 µM (inactive) | > 100 µM (inactive) | GI50 (DMS-114): > 100 µM (inactive); GI50 (HOP-18): > 100 µM (inactive); GI50 (KM-20L2): > 100 µM (inactive); GI50 (XF498): > 100 µM (inactive)
8 | CS(=O)(=O)N1CC(CCl)c2ccc([N+](=O)[O-])cc21 (stereo not given) | 70.1 µM (inactive) |  |  | 
9 | CC(C)CNC(=O)Cn1c(-c2ccccc2)cc2ccccc21 | 19.5 µM (inactive) |  |  | 
10 | c1ccc(SC(CCCCOC2CCCCO2)Sc2ccccc2)cc1 (stereo not given) |  | 41.1 µM (inactive) | 46.6 µM (inactive) | GI50 (DMS-114): 34.1 µM (inactive); GI50 (SNB-78): 97.1 µM (inactive); GI50 (XF498): > 100 µM (inactive)
11 | Cc1ccc2nc(/C=N/c3ccccc3Cl)cc(C)c2c1 | 25.5 µM (inactive) |  |  | 
12 | CC(=O)OCC1OC(OCCCOP(=O)(OCCC#N)OCC2OC(n3cnc4c(N)ncnc43)C(OC(=O)c3ccccc3)C2OC(=O)c2ccccc2)C(OC(C)=O)C(OC(C)=O)C1OC(C)=O (stereo not given) | 28.7 µM (inactive) |  |  | 
13 | Cc1cc2c(C)n(Cc3ccccc3Cl)nc2c(C(=O)O)c1C |  | > 100 µM (inactive) | > 100 µM (inactive) | GI50 (HOP-18): > 100 µM (inactive); GI50 (KM-20L2): > 100 µM (inactive); GI50 (SNB-78): > 100 µM (inactive); GI50 (XF498): > 100 µM (inactive)
14 | CN(C)CCC(=O)[C@@]1(O)CC[C@H]2[C@@H]3CC=C4C[C@@H](O)CC[C@]4(C)[C@H]3CC[C@@]21C | 20.7 µM (inactive) |  |  | 
15 | CC(C)C(=S)N(C)O |  | 2.39 µM (inactive) | 11.4 µM (inactive) | GI50 (DMS-114): 2.43 µM (inactive); GI50 (KM-20L2): 14.5 µM (inactive); GI50 (RXF 631): 11.7 µM (inactive); GI50 (SNB-78): 61.2 µM (inactive)
16 | COC(=O)CC1NC(=O)C1C(C)(OC)OC (stereo not given) |  | > 100 µM (inactive) | > 100 µM (inactive) | GI50 (DMS-114): > 100 µM (inactive); GI50 (KM-20L2): > 100 µM (inactive); GI50 (RXF 631): > 100 µM (inactive); GI50 (XF498): > 100 µM (inactive)
17 | COc1cc(OC)c2c(O)c(S(=O)(=O)c3ccc(C)cc3)c(=O)oc2c1 | 94.6 µM (inactive) |  |  | 
18 | CC(=O)OC1COC(Nc2ccc(C(C)=O)cc2)C(OC(C)=O)C1OC(C)=O (stereo not given) |  | > 100 µM (inactive) | > 100 µM (inactive) | GI50 (DMS-114): > 100 µM (inactive); GI50 (HOP-18): > 100 µM (inactive); GI50 (KM-20L2): > 100 µM (inactive); GI50 (RXF 631): > 100 µM (inactive); GI50 (SNB-78): > 100 µM (inactive)
19 | COc1ccc(/C=N/NC(=O)C2=C(N)N(c3ccccc3)C(=C(C#N)C#N)S2)cc1 | > 100 µM (inactive) | > 100 µM (inactive) | > 100 µM (inactive) | GI50 (HOP-18): > 100 µM (inactive)
20 | COc1ccc(-c2cc(-c3ccccc3)nc(/N=C\c3ccccc3)n2)c(O)c1 | > 100 µM (inactive) |  |  | 
21 | COC(=S)OC1CC(n2cnc3c(=O)[nH]cnc32)OC1CO[Si](C)(C)C(C)(C)C (stereo not given) | > 100 µM (inactive) |  |  | 
22 | Cc1ccc(S(=O)(=O)OCCn2cnc3nc(NC(=O)c4ccccc4)[nH]c(=O)c32)cc1 |  | 94.6 µM (inactive) | > 100 µM (inactive) | GI50 (DMS-114): > 100 µM (inactive); GI50 (HOP-18): > 100 µM (inactive); GI50 (KM-20L2): > 100 µM (inactive); GI50 (SNB-78): > 100 µM (inactive)
23 | COc1cc(OC)c(-n2[nH]c(=O)n(C)c2=O)c(OC)c1 | > 100 µM (inactive) |  |  | 
24 | O=C(NC(=O)c1cn(CCN2CCN(C(=O)NCCCCCCNC(=O)N3CCN(CCn4cc(C(=O)NC(=O)OCc5ccccc5)c(=O)[nH]c4=O)CC3)CC2)c(=O)[nH]c1=O)OCc1ccccc1 |  |  | > 100 µM (inactive) | GI50 (DMS-114): > 100 µM (inactive); GI50 (HOP-18): > 100 µM (inactive); GI50 (KM-20L2): > 100 µM (inactive); GI50 (RXF 631): > 100 µM (inactive); GI50 (SNB-78): > 100 µM (inactive)
25 | COc1ccc2c3c([nH]c2c1[N+](=O)[O-])C(C)N(Cc1ccc([N+](=O)[O-])cc1)CC3 (stereo not given) |  | 5.7 µM (inactive) |  | GI50 (KM-20L2): 10.8 µM (inactive); GI50 (SNB-78): 26.2 µM (inactive)
26 | C[C@H]1C[C@H]2[C@@H]3C(C)(C)O[C@]4(O)C(=O)[C@]5(O)[C@@H](C)CC[C@H]1[C@]25C(=O)[C@]34C | 37.5 µM (inactive) |  |  | 
27 | CCN(CC)c1ccc(/C=C/C2=NN(c3cccc(S(=O)(=O)O)c3)C3(C2)SCC(=O)N3c2nc3ccccc3s2)cc1 (stereo not given) | 33.3 µM (inactive) |  |  | 
28 | CCOC(=O)C(CCN1CCC2(CC1)C(=O)N(C)CN2c1ccccc1)C(=O)OCC | > 100 µM (inactive) |  |  | 
29 | O=C(Cc1ccccc1)NNc1nc(NNC(=O)c2ccncc2)nc(Nc2cccc(Cl)c2)n1 | > 10 µM (inactive) |  |  | 
30 | CNC(=O)NCCN1CC2CCC(CC2)C1 | > 10 µM (inactive) |  |  | 
